This note sets out measurements from PubChem BioAssay AID1259407 (Chemical Carcinogenesis Research Information System (CCRIS), 2018).

This data set relates to CCRIS mutagenicity, Ames/micronucleus/aberration tests. Kind of data set: CCRIS mutagenicity studies. The conditions noted are these: Test System: AMES SALMONELLA TYPHIMURIUM
The mark [1] stands for this setting: Strain/Indicator: TA98, Metabolic Activation: NONE, Method: PREINCUBATION
Where [2] appears, read: Strain/Indicator: TA100, Metabolic Activation: NONE, Method: PREINCUBATION
Setting [3] is: Strain/Indicator: TA1535, Metabolic Activation: NONE, Method: PREINCUBATION
Where [4] appears, read: Strain/Indicator: TA98, Metabolic Activation: NONE, Method: STANDARD PLATE.
[5] abbreviates: Strain/Indicator: TA98, Metabolic Activation: RAT, LIVER, S-9, AROCLOR 1254, Method: PREINCUBATION
Where [6] appears, read: Strain/Indicator: TA100, Metabolic Activation: RAT, LIVER, S-9, AROCLOR 1254, Method: PREINCUBATION
Setting [7] is: Strain/Indicator: TA1535, Metabolic Activation: RAT, LIVER, S-9, AROCLOR 1254, Method: PREINCUBATION

Calls of active or inactive are those of the source. No rule for the calls is given here.

In the case of `CCCCOCCCC`, the mutagenic call reads like this: (Strain/Indicator: TA97, Metabolic Activation: HAMSTER, LIVER, S-9, AROCLOR 1254 (10%), Method: PREINCUBATION) “inactive; negative”; (Strain/Indicator: TA97, Metabolic Activation: HAMSTER, LIVER, S-9, AROCLOR 1254 (30%), Method: PREINCUBATION) “inactive; negative”; (Strain/Indicator: TA97, Metabolic Activation: NONE, Method: PREINCUBATION) “inactive; negative”; (Strain/Indicator: TA97, Metabolic Activation: RAT, LIVER, S-9, AROCLOR 1254 (10%), Method: PREINCUBATION) “inactive; negative”; (Strain/Indicator: TA97, Metabolic Activation: RAT, LIVER, S-9, AROCLOR 1254 (30%), Method: PREINCUBATION) “inactive; negative”; (Strain/Indicator: TA98, Metabolic Activation: HAMSTER, LIVER, S-9, AROCLOR 1254 (10%), Method: PREINCUBATION) “inactive; negative”. Moreover, the mutagenic call by setting is: (Strain/Indicator: TA98, Metabolic Activation: HAMSTER, LIVER, S-9, AROCLOR 1254 (30%), Method: PREINCUBATION) “inactive; negative”; under setting [1], “inactive; negative”; (Strain/Indicator: TA98, Metabolic Activation: RAT, LIVER, S-9, AROCLOR 1254 (10%), Method: PREINCUBATION) “inactive; negative”; (Strain/Indicator: TA98, Metabolic Activation: RAT, LIVER, S-9, AROCLOR 1254 (30%), Method: PREINCUBATION) “inactive; negative”; (Strain/Indicator: TA100, Metabolic Activation: HAMSTER, LIVER, S-9, AROCLOR 1254 (10%), Method: PREINCUBATION) “inactive; negative”; (Strain/Indicator: TA100, Metabolic Activation: HAMSTER, LIVER, S-9, AROCLOR 1254 (30%), Method: PREINCUBATION) “inactive; negative”. Moreover, the mutagenic call runs as follows: under setting [2], “inactive; negative”; (Strain/Indicator: TA100, Metabolic Activation: RAT, LIVER, S-9, AROCLOR 1254 (10%), Method: PREINCUBATION) “inactive; negative”; (Strain/Indicator: TA100, Metabolic Activation: RAT, LIVER, S-9, AROCLOR 1254 (30%), Method: PREINCUBATION) “inactive; negative”; (Strain/Indicator: TA1535, Metabolic Activation: HAMSTER, LIVER, S-9, AROCLOR 1254 (10%), Method: PREINCUBATION) “inactive; negative”; (Strain/Indicator: TA1535, Metabolic Activation: HAMSTER, LIVER, S-9, AROCLOR 1254 (30%), Method: PREINCUBATION) “inactive; negative”; under setting [3], “inactive; negative”. Also, the mutagenic call by setting is: (Strain/Indicator: TA1535, Metabolic Activation: RAT, LIVER, S-9, AROCLOR 1254 (10%), Method: PREINCUBATION) “inactive; negative”; (Strain/Indicator: TA1535, Metabolic Activation: RAT, LIVER, S-9, AROCLOR 1254 (30%), Method: PREINCUBATION) “inactive; negative”.

As to `O=c1cccc2cc(O)c(O)c(O)c2c1O`, the mutagenic call (Strain/Indicator: TA2638, Metabolic Activation: S-9, Method: STANDARD PLATE) was “inactive; negative”.

With `Cc1ccc(C)c2c3c(ccc12)C(O)C(O)C1OC31` (centres undefined), the mutagenic call is “active; positive” under setting [4] and “active; positive” (Strain/Indicator: TA100, Metabolic Activation: NONE, Method: STANDARD PLATE).

For `ClCc1ccc(CCl)cc1`, under setting [4], the mutagenic call was “inactive; negative”.

Take `CCCCCN(CCCCO)N=O`: the mutagenic call (Strain/Indicator: TA1535, Metabolic Activation: RAT, LIVER, S-9, KANECHLOR 500 OR PHENOBARBITAL, Method: LIQUID SUSPENSION) was “active; positive”.

Take `CC(=O)NC[C@H](O)COc1cccc2ccccc12`: the mutagenic call reads like this: under setting [5], “inactive; negative”; under setting [6], “inactive; negative”; (Strain/Indicator: TA104, Metabolic Activation: RAT, LIVER, S-9, AROCLOR 1254, Method: PREINCUBATION) “active; positive”; under setting [7], “inactive; negative”; (Strain/Indicator: TA1538, Metabolic Activation: RAT, LIVER, S-9, AROCLOR 1254, Method: PREINCUBATION) “inactive; negative”; (Strain/Indicator: YG1021, Metabolic Activation: RAT, LIVER, S-9, AROCLOR 1254, Method: PREINCUBATION) “inactive; negative”. Moreover, the mutagenic call reads like this: (Strain/Indicator: YG1024, Metabolic Activation: RAT, LIVER, S-9, AROCLOR 1254, Method: PREINCUBATION) “inactive; negative”; (Strain/Indicator: YG1026, Metabolic Activation: RAT, LIVER, S-9, AROCLOR 1254, Method: PREINCUBATION) “inactive; negative”; (Strain/Indicator: YG1029, Metabolic Activation: RAT, LIVER, S-9, AROCLOR 1254, Method: PREINCUBATION) “active; positive”; (Strain/Indicator: YG1041, Metabolic Activation: RAT, LIVER, S-9, AROCLOR 1254, Method: PREINCUBATION) “inactive; negative”; (Strain/Indicator: YG1042, Metabolic Activation: RAT, LIVER, S-9, AROCLOR 1254, Method: PREINCUBATION) “inactive; negative”; (Strain/Indicator: YG3003, Metabolic Activation: RAT, LIVER, S-9, AROCLOR 1254, Method: PREINCUBATION) “active; positive”.

Consider `CCCCOC(=O)c1ccc(N)cc1`, for which the mutagenic call by setting is: (Strain/Indicator: TA98, Metabolic Activation: HAMSTER, LIVER, S-9, AROCLOR 1254, Method: PREINCUBATION) “inactive; negative”; under setting [1], “inactive; negative”; under setting [5], “inactive; negative”; (Strain/Indicator: TA100, Metabolic Activation: HAMSTER, LIVER, S-9, AROCLOR 1254, Method: PREINCUBATION) “inactive; negative”; under setting [2], “inactive; negative”; under setting [6], “inactive; negative”. For the same molecule, the mutagenic call was “inactive; negative” (Strain/Indicator: TA1535, Metabolic Activation: HAMSTER, LIVER, S-9, AROCLOR 1254, Method: PREINCUBATION); “inactive; negative” under setting [3]; “inactive; negative” under setting [7]; “inactive; negative” (Strain/Indicator: TA1537, Metabolic Activation: HAMSTER, LIVER, S-9, AROCLOR 1254, Method: PREINCUBATION); “inactive; negative” (Strain/Indicator: TA1537, Metabolic Activation: NONE, Method: PREINCUBATION); “inactive; negative” (Strain/Indicator: TA1537, Metabolic Activation: RAT, LIVER, S-9, AROCLOR 1254, Method: PREINCUBATION).
